Experimental data: ChEMBL document CHEMBL1156466, “NHE1 inhibition by amiloride- and benzoylguanidine-type compounds. Inhibitor binding loci deduced from chimeras of NHE1 homologues with endogenous differences in inhibitor sensitivity” (J Biol Chem, 2007)
The source made the active and inactive calls. The calls are words filed in the database; no cut-off is given here.

What was measured:
[1] = target: Sodium/hydrogen exchanger (Amphiuma tridactylum) (UniProt Q9W6Q1); experiment: Inhibition of osmotic cell shrinkage-induced NHE1 activity in Amphiuma tridactylum RBC
Chain of Sodium/hydrogen exchanger (Amphiuma tridactylum) (Q9W6Q1 as listed by the source): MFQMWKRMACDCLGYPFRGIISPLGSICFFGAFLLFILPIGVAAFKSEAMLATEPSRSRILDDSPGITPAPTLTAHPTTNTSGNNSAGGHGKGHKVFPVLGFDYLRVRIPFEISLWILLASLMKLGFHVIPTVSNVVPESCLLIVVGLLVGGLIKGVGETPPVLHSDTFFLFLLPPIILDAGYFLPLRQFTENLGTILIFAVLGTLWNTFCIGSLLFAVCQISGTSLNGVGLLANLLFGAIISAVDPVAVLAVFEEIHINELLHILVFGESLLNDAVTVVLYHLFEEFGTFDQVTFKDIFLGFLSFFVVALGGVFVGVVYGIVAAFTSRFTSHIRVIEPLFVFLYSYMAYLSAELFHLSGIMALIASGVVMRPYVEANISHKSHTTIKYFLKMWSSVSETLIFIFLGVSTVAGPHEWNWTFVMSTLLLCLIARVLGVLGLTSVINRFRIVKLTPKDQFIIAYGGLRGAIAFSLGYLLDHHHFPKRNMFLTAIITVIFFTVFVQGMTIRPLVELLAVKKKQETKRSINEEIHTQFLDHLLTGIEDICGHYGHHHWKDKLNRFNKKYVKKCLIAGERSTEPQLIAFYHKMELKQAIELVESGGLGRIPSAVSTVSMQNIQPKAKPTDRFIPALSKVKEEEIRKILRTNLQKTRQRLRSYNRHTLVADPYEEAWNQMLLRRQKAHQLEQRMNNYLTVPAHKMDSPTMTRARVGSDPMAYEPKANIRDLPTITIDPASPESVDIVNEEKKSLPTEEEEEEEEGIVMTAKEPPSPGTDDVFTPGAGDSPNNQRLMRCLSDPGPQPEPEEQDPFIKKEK

[2] = target: T1, Sodium/hydrogen exchanger (Pseudopleuronectes americanus) (UniProt Q804I7); experiment: Inhibition of osmotic cell shrinkage-induced NHE1 activity in Pleuronectes americanus RBC upto 100 uM
T1 sequence (whole entry): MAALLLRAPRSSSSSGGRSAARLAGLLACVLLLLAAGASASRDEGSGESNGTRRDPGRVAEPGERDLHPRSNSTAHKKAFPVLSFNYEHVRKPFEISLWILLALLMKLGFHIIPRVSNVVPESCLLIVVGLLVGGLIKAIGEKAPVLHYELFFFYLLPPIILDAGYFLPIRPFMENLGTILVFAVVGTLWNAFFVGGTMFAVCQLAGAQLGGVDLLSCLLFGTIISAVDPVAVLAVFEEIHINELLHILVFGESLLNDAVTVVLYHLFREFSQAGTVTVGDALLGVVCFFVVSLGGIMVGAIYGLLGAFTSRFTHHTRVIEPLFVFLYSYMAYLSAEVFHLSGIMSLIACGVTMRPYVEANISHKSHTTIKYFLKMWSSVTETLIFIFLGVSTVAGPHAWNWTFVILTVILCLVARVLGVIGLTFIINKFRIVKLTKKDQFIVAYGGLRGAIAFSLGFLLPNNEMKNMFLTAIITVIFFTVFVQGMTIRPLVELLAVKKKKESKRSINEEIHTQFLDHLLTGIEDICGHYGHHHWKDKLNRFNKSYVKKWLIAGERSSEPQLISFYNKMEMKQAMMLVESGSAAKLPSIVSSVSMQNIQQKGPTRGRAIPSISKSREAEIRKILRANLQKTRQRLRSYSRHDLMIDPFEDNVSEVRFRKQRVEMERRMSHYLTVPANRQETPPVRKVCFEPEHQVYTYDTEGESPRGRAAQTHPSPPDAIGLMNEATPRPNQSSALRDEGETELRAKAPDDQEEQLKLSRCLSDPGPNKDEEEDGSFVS

[3] = target: Sodium/hydrogen exchanger (Amphiuma tridactylum, UniProt Q9W6Q1); experiment: (§1) Inhibition of Amphiuma tridactylum wild type NHE1 expressed in chinese hamster AP1 cells assessed as intracellular pHi recovery by ammonium chloride prepulse protocol; assay type: cell-based
Chain of Sodium/hydrogen exchanger (Q9W6Q1 whole entry): as the sequence (Q9W6Q1 as listed by the source) above

[4] = target: Sodium/hydrogen exchanger 1 (Homo sapiens, UniProt P19634); experiment: Inhibition of human wild type NHE1 expressed in chinese hamster AP1 cells assessed as intracellular pHi recovery by ammonium chloride prepulse protocol; assay type: cell-based
Chain of Sodium/hydrogen exchanger 1 (P19634 whole entry, the tested form may be a part): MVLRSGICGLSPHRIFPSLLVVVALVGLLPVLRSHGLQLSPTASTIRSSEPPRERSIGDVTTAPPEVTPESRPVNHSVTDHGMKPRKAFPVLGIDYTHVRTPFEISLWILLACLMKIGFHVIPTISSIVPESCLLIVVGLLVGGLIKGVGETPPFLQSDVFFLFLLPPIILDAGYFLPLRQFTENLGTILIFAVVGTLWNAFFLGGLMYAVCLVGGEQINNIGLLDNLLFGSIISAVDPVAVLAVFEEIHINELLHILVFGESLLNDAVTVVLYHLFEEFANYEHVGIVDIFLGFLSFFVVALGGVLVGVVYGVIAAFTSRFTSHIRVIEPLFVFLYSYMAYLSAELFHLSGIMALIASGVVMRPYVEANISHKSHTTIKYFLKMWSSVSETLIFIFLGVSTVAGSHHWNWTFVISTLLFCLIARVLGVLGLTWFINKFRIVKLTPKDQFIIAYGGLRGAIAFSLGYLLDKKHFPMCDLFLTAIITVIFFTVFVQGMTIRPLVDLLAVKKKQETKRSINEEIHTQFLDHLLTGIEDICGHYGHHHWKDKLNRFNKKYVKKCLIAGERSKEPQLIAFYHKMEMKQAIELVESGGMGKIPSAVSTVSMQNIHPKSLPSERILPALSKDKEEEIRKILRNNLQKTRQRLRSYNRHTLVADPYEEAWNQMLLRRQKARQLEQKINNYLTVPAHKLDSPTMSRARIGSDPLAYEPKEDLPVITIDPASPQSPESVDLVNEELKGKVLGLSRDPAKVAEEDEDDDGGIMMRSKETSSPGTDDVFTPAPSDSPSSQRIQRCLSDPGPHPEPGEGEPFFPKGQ

[5] = (§2) Inhibition of Pleuronectes americanus NHE1 C-terminal mutant containing TM10 domain of Amphiuma tridactylum expressed in chinese hamster AP1 cells assessed as intracellular pHi recovery by ammonium chloride prepulse protocol; assay type: cell-based
[6] = (§3) Inhibition of Pleuronectes americanus NHE1 mutant containing TM10-12 domain of Amphiuma tridactylum expressed in chinese hamster AP1 cells assessed as intracellular pHi recovery by ammonium chloride prepulse protocol; assay type: cell-based
[7] = (§4) Inhibition of Amphiuma tridactylum NHE1 mutant containing TM10-12 domain of Pleuronectes americanus expressed in chinese hamster AP1 cells assessed as intracellular pHi recovery by ammonium chloride prepulse protocol; assay type: cell-based
[8] = (§5) Inhibition of Pleuronectes americanus NHE1 TM4 mutant containing VFFLF sequence of human expressed in chinese hamster AP1 cells assessed as intracellular pHi recovery by ammonium chloride prepulse protocol; assay type: cell-based
[9] = target: T1, Sodium/hydrogen exchanger (Pseudopleuronectes americanus); experiment: Inhibition of Pleuronectes americanus wild type NHE1 expressed in chinese hamster AP1 cells assessed as intracellular pHi recovery by ammonium chloride prepulse protocol; assay type: cell-based
[10] = target: Sodium/hydrogen exchanger (Amphiuma tridactylum) (UniProt Q9W6Q1); experiment: as §1; assay type: cell-based
AP1 [11] = experiment: as §2; assay type: cell-based
AP1 [12] = experiment: as §3; assay type: cell-based
AP1 [13] = experiment: as §4; assay type: cell-based
AP1 [14] = experiment: as §5; assay type: cell-based
AP1 [15] = experiment: Inhibition of Pleuronectes americanus NHE1 TM4 mutant containing TFFLF sequence of Amphiuma tridactylum expressed in chinese hamster AP1 cells assessed as intracellular pHi recovery by ammonium chloride prepulse protocol; assay type: cell-based
[16] = target: T1, Sodium/hydrogen exchanger (Pseudopleuronectes americanus); experiment: Inhibition of osmotic cell shrinkage-induced NHE1 activity in Pleuronectes americanus RBC at 1 mM
AP1 [17] = experiment: Inhibition of Pleuronectes americanus NHE1 C-terminal mutant containing TM7 domain of Amphiuma tridactylum expressed in chinese hamster AP1 cells assessed as intracellular pHi recovery by ammonium chloride prepulse protocol; assay type: cell-based
AP1 [18] = experiment: Inhibition of Pleuronectes americanus NHE1 C-terminal mutant with replacement of residues C-terminal to 489 position with corresponding residues of Amphiuma tridactylum expressed in chinese hamster AP1 cells assessed as intracellular pHi recovery by ammonium chloride prepulse protocol; assay type: cell-based
[19] = target: Sodium/hydrogen exchanger (Amphiuma tridactylum) (UniProt Q9W6Q1); experiment: Inhibition of osmotic cell shrinkage-induced NHE1 activity in Amphiuma tridactylum RBC at 100 uM
[20] = target: T1, Sodium/hydrogen exchanger (Pseudopleuronectes americanus); experiment: Inhibition of osmotic cell shrinkage-induced NHE1 activity in Pleuronectes americanus RBC at 20 uM

| Activity [9] | Activity [10] | Activity [4] | Structure (SMILES) | IC50 [3] | IC50 [5] | IC50 [6] | IC50 [7] | IC50 [8] | Activity (AP1 [11]) | Activity (AP1 [12]) | Activity (AP1 [13]) | Activity (AP1 [14]) | Activity (AP1 [15]) | other results |
| --- | --- | --- | --- | --- | --- | --- | --- | --- | --- | --- | --- | --- | --- | --- |
| – | – | – | CCN(c1nc(N)c(C(=O)NC(=N)N)nc1Cl)C(C)C [5-(N-ETHYL-N-ISOPROPYL)AMILORIDE] | 8.7 µM | 37 µM | 11 µM | 5.8 µM | 0.92 µM | – | – | – | – | – | Activity [1]: Active; Activity [2]: inactive; IC50 [4]: 0.8 µM |
| inactive | inactive | Active | CC(C)c1ccc(C(=O)N=C(N)N)cc1S(C)(=O)=O | – | – | – | – | – | inactive | inactive | Active | Active | Active | – |
| – | – | – | N=C(N)NC(=O)c1nc(Cl)c(N)nc1N [AMILORIDE] | 98 µM | 491 µM | 137 µM | 38 µM | 118 µM | – | – | – | – | Active | Activity [16]: inactive; Activity (AP1 [17]): Active; Activity (AP1 [18]): inactive |
| inactive | inactive | Active | CS(=O)(=O)c1cc(C(=O)N=C(N)N)ccc1N1CCCCC1 | – | – | – | – | – | inactive | inactive | Active | Active | Active | Activity [19]: inactive; Activity [20]: inactive |
